Results reported in ChEMBL document CHEMBL1201862, “PubChem BioAssay data set” (2004).
“And” between values parts separate entries of the source, which are not always exact repeats. Equal entries are not always repeated.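 1) Cells in 96-well plates. 2) Compound, 48 h, 5 concentrations. 3) Linear interpolation between surrounding doses. 4) Unreached endpoint = highest concentration. GI50 marks 50% less growth.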 The source made the active and inactive calls. Cut-off read from the data, not from the text of the source: active = GI50 up to about 1.1 µM and inactive = higher.

What was measured:
Test in all cases: NCI tumour cell line growth inhibition, 48 h
SK-OV-3 = test system: SK-OV-3
DMS-114 = test system: DMS-114
EKVX = test system: EKVX
M14 = test system: M14
UACC-257 = test system: UACC-257
RPMI-8226 = test system: RPMI-8226
A498 = test system: A498
LXFL 529 = test system: LXFL 529
KM12 = test system: KM12
786-0 = test system: 786-0
NCI-H226 = test system: NCI-H226
SF-295 = test system: SF-295
SF-268 = test system: SF-268
HOP-18 = test system: HOP-18
OVCAR-8 = test system: OVCAR-8
Malme-3M = test system: Malme-3M
DMS-273 = test system: DMS-273
SNB-75 = test system: SNB-75
HOP-92 = test system: HOP-92
U-251 = test system: U-251
SK-MEL-5 = test system: SK-MEL-5
SNB-78 = test system: SNB-78
OVCAR-5 = test system: OVCAR-5
SF-539 = test system: SF-539
ACHN = test system: ACHN
SNB-19 = test system: SNB-19
KM-20L2 = test system: KM-20L2
IGROV-1 = test system: IGROV-1
HCT-15 = test system: HCT-15
RXF 393 = test system: RXF 393
NCI-H522 = test system: NCI-H522
NCI-H23 = test system: NCI-H23
SN12C = test system: SN12C
SK-MEL-28 = test system: SK-MEL-28
COLO 205 = test system: COLO 205
OVCAR-4 = test system: OVCAR-4
CAKI-1 = test system: CAKI-1
HCT-116 = test system: HCT-116
TK-10 = test system: TK-10
NCI-H460 = test system: NCI-H460
HT-29 = test system: HT-29
XF498 = test system: XF498
UO-31 = test system: UO-31
LOX IMVI = test system: LOX IMVI
A549 = test system: A549
OVCAR-3 = test system: OVCAR-3
M19-MEL = test system: M19-MEL
DLD-1 = test system: DLD-1
HOP-62 = test system: HOP-62
HCC 2998 = test system: HCC 2998
UACC-62 = test system: UACC-62
SW-620 = test system: SW-620
T47D = test system: T47D
DU-145 = test system: DU-145
MOLT-4 = test system: MOLT-4
SK-MEL-2 = test system: SK-MEL-2
MDA-N = test system: MDA-N
K562 = test system: K562
CCRF-CEM = test system: CCRF-CEM
HL-60 = test system: HL-60
SR = test system: SR

## CC1=C(C(=O)CC(=O)C(=O)Nc2ccc(C)c(C)c2)Sc2ccccc2N1
SK-OV-3
  GI50: > 100 µM (inactive)
DMS-114
  GI50: > 100 µM (inactive)
EKVX
  GI50: > 100 µM (inactive)
M14
  GI50: > 100 µM (inactive)
UACC-257
  GI50: > 100 µM (inactive)
RPMI-8226
  GI50: > 100 µM (inactive)
A498
  GI50: > 100 µM (inactive)
LXFL 529
  GI50: > 100 µM (inactive)
KM12
  GI50: > 100 µM (inactive)
786-0
  GI50: > 100 µM (inactive)
NCI-H226
  GI50: > 100 µM (inactive)
SF-295
  GI50: > 100 µM (inactive)
SF-268
  GI50: > 100 µM (inactive)
HOP-18
  GI50: > 100 µM (inactive)
OVCAR-8
  GI50: > 100 µM (inactive)
Malme-3M
  GI50: > 100 µM (inactive)
DMS-273
  GI50: > 100 µM (inactive)
SNB-75
  GI50: > 100 µM (inactive)
HOP-92
  GI50: > 100 µM (inactive)
U-251
  GI50: > 100 µM (inactive)
SK-MEL-5
  GI50: > 100 µM (inactive)
SNB-78
  GI50: > 100 µM (inactive)
OVCAR-5
  GI50: > 100 µM (inactive)
SF-539
  GI50: > 100 µM (inactive)
ACHN
  GI50: > 100 µM (inactive)
SNB-19
  GI50: > 100 µM (inactive)
KM-20L2
  GI50: > 100 µM (inactive)
IGROV-1
  GI50: > 100 µM (inactive)
HCT-15
  GI50: > 100 µM
RXF 393
  GI50: > 100 µM (inactive)
NCI-H522
  GI50: > 100 µM (inactive)
NCI-H23
  GI50: > 100 µM (inactive)
SN12C
  GI50: > 100 µM (inactive)
SK-MEL-28
  GI50: > 100 µM (inactive)
COLO 205
  GI50: > 100 µM (inactive)
OVCAR-4
  GI50: > 100 µM (inactive)
CAKI-1
  GI50: > 100 µM (inactive)
HCT-116
  GI50: > 100 µM (inactive)
TK-10
  GI50: > 100 µM (inactive)
NCI-H460
  GI50: > 100 µM (inactive)
HT-29
  GI50: > 100 µM (inactive)
XF498
  GI50: > 100 µM (inactive)
UO-31
  GI50: > 100 µM (inactive)
LOX IMVI
  GI50: > 100 µM (inactive)
A549
  GI50: > 100 µM (inactive)
OVCAR-3
  GI50: > 100 µM (inactive)
M19-MEL
  GI50: > 100 µM (inactive)
DLD-1
  GI50: > 100 µM (inactive)
HOP-62
  GI50: > 100 µM (inactive)
HCC 2998
  GI50: > 100 µM (inactive)
UACC-62
  GI50: > 100 µM (inactive)
SW-620
  GI50: > 100 µM (inactive)

## CN(C)CC1CCCC(CN(C)C)C1=O (stereo not drawn)
DMS-114
  GI50: 1.48 µM (inactive)
EKVX
  GI50: 5.74 µM (inactive) and 6.61 µM (inactive)
UACC-257
  GI50: 2.34 µM (inactive) and 2.11 µM (inactive)
T47D
  GI50: 1.69 µM (inactive) and 1.24 µM (inactive)
LXFL 529
  GI50: 0.386 µM (active)
786-0
  GI50: 2.32 µM (inactive) and 1.77 µM (inactive)
HOP-18
  GI50: 1.83 µM (inactive)
OVCAR-8
  GI50: 2.71 µM (inactive) and 2.98 µM (inactive)
DMS-273
  GI50: 10.9 µM (inactive)
SNB-75
  GI50: 16.4 µM (inactive) and 13.9 µM (inactive)
HOP-92
  GI50: 1.91 µM (inactive) and 968 nM (active)
U-251
  GI50: 10.7 µM (inactive) and 17.9 µM (inactive)
SK-MEL-5
  GI50: 8.38 µM (inactive) and 16 µM (inactive)
SNB-78
  GI50: 3.5 µM (inactive)
OVCAR-5
  GI50: 18.2 µM (inactive) and 18.3 µM (inactive)
ACHN
  GI50: 1.33 µM (inactive) and 1.87 µM (inactive)
SNB-19
  GI50: > 45.6 µM (inactive) and 47 µM (inactive)
KM-20L2
  GI50: 5.02 µM (inactive)
IGROV-1
  GI50: 19.3 µM (inactive) and 18.1 µM (inactive)
RXF 393
  GI50: 1.73 µM (inactive) and 1.26 µM (inactive)
DU-145
  GI50: > 10 µM (inactive) and 15.6 µM (inactive)
MOLT-4
  GI50: 241 nM (active) and 450 nM (active)
COLO 205
  GI50: 1.67 µM (inactive) and 3.33 µM (inactive)
SK-MEL-2
  GI50: 8.73 µM (inactive) and 17.2 µM (inactive)
NCI-H460
  GI50: 19.8 µM (inactive) and 17.5 µM (inactive)
MDA-N
  GI50: 11 µM (inactive) and 12.1 µM (inactive)
XF498
  GI50: 2.09 µM (inactive)
A549
  GI50: 24.9 µM (inactive) and 27.2 µM (inactive)
OVCAR-3
  GI50: 2.58 µM (inactive) and 1.95 µM (inactive)
M19-MEL
  GI50: 3.65 µM (inactive)
DLD-1
  GI50: 1.12 µM (active)
HCC 2998
  GI50: 13.9 µM (inactive) and 19.3 µM (inactive)
SW-620
  GI50: 196 nM (active) and 271 nM (active)

## CCCCCCCCC[C@@H]1CC(=O)OCC2OC(O[C@H](CCCCCCCCC)CC(=O)OCC3OC(O[C@H](CCCCCCCCC)CC(=O)OCC4OC(O1)C(O)C(O)C4O)C(O)C(O)C3O)C(O)C(O)C2O (stereo partly drawn)
SK-OV-3
  GI50: 13.4 µM (inactive)
DMS-114
  GI50: 8.89 µM (inactive)
EKVX
  GI50: 12 µM (inactive)
M14
  GI50: 4.97 µM (inactive)
UACC-257
  GI50: 10.8 µM (inactive)
RPMI-8226
  GI50: 14.5 µM (inactive)
A498
  GI50: 14.5 µM (inactive)
LXFL 529
  GI50: 6.53 µM (inactive)
KM12
  GI50: 6.5 µM (inactive)
786-0
  GI50: 0.957 µM (active)
NCI-H226
  GI50: 3.9 µM (inactive)
SF-295
  GI50: 14.1 µM (inactive)
SF-268
  GI50: 2.94 µM (inactive)
HOP-18
  GI50: < 0.01 µM (active)
OVCAR-8
  GI50: 14.3 µM (inactive)
Malme-3M
  GI50: 8.83 µM (inactive)
DMS-273
  GI50: 8.65 µM (inactive)
SNB-75
  GI50: 9.27 µM (inactive)
HOP-92
  GI50: 7.05 µM (inactive)
U-251
  GI50: 8.28 µM (inactive)
SK-MEL-5
  GI50: 12.5 µM (inactive)
K562
  GI50: 3.47 µM (inactive)
SNB-78
  GI50: 17.3 µM (inactive)
OVCAR-5
  GI50: 10.7 µM (inactive)
SF-539
  GI50: 10.3 µM (inactive)
ACHN
  GI50: 13.2 µM (inactive)
SNB-19
  GI50: 8.89 µM (inactive)
KM-20L2
  GI50: 6.46 µM (inactive)
IGROV-1
  GI50: 14.5 µM (inactive)
HCT-15
  GI50: 5.43 µM
RXF 393
  GI50: 17 µM (inactive)
NCI-H522
  GI50: 8.73 µM (inactive)
NCI-H23
  GI50: 16 µM (inactive)
CCRF-CEM
  GI50: 5.79 µM (inactive)
SN12C
  GI50: 13.7 µM (inactive)
MOLT-4
  GI50: 6.22 µM (inactive)
SK-MEL-28
  GI50: 6.62 µM (inactive)
HL-60
  GI50: 14.3 µM (inactive)
COLO 205
  GI50: 2.52 µM (inactive)
OVCAR-4
  GI50: 18.2 µM (inactive)
CAKI-1
  GI50: 3.21 µM (inactive)
SK-MEL-2
  GI50: 8.67 µM (inactive)
HCT-116
  GI50: 8.18 µM (inactive)
TK-10
  GI50: 8.15 µM (inactive)
NCI-H460
  GI50: 5.13 µM (inactive)
HT-29
  GI50: 11.9 µM (inactive)
XF498
  GI50: 7.74 µM (inactive)
UO-31
  GI50: 9.4 µM (inactive)
LOX IMVI
  GI50: 3.52 µM (inactive)
A549
  GI50: 14.7 µM (inactive)
OVCAR-3
  GI50: 18 µM (inactive)
M19-MEL
  GI50: 4.42 µM (inactive)
DLD-1
  GI50: 14 µM (inactive)
HOP-62
  GI50: 12.3 µM (inactive)
HCC 2998
  GI50: 12 µM (inactive)
SR
  GI50: 6.7 µM (inactive)
UACC-62
  GI50: 14.9 µM (inactive)
SW-620
  GI50: 5.83 µM (inactive)
